From ChEMBL document CHEMBL1201862, “PubChem BioAssay data set” (2004)
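Five concentrations, 48 hours, 96-well plates. The concentration for 50% growth inhibition is given as GI50.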 Activity calls are given as the source filed them. Rule as the data show it: active = GI50 up to about 1.1 µM and inactive = higher.

Legend:
Assay in all cases: NCI anticancer screen, dose series, 48 h
[1] = test system: UO-31
[2] = test system: CCRF-CEM
[3] = test system: SW-620
[4] = test system: IGROV-1
[5] = test system: M14
[6] = test system: NCI-H522
[7] = test system: KM12
[8] = test system: SF-539
[9] = test system: RPMI-8226
[10] = test system: NCI-H23
[11] = test system: UACC-62
[12] = test system: SK-OV-3
[13] = test system: UACC-257
[14] = test system: SN12C
[15] = test system: SNB-19
[16] = test system: RXF 393

Row | SMILES | GI50 [1] | GI50 [2] | GI50 [3] | GI50 [4] | GI50 [5] | GI50 [6] | GI50 [7] | GI50 [8] | GI50 [9] | GI50 [10] | GI50 [11] | GI50 [12] | GI50 [13] | GI50 [14] | GI50 [15] | GI50 [16]
1 | COc1cc2c3c(c1OC)C(=O)C=C3N(S(=O)(=O)c1ccc(C)cc1)CC2 | > 100 µM (inactive) | > 100 µM (inactive) | > 100 µM (inactive) | > 100 µM (inactive) | > 100 µM (inactive) | 10.4 µM (inactive) | > 100 µM (inactive) | 52.7 µM (inactive) | > 100 µM (inactive) | > 100 µM (inactive) | > 100 µM (inactive) | > 100 µM (inactive) | > 100 µM (inactive) | > 100 µM (inactive) | > 100 µM (inactive) | –
2 | CN1C(=O)c2cccc3c([N+](=O)[O-])ccc(c23)C1=O | 13.7 µM (inactive) | 7.24 µM (inactive) | 2.43 µM (inactive) | 3.49 µM (inactive) | 11.1 µM (inactive) | 1.36 µM (inactive) | 4.94 µM (inactive) | 13.2 µM (inactive) | – | 11.9 µM (inactive) | 1.77 µM (inactive) | 14.7 µM (inactive) | 9.53 µM (inactive) | 12.4 µM (inactive) | 14.2 µM (inactive) | 3.1 µM (inactive)
3 | Cc1ccc(S(=O)(=O)ON/N=C2/C3OC3[C@@H]3CCCC[C@H]23)cc1 (stereo partly drawn) | > 100 µM (inactive) | > 100 µM (inactive) | > 100 µM (inactive) | > 100 µM (inactive) | > 100 µM (inactive) | > 100 µM (inactive) | > 100 µM (inactive) | > 100 µM (inactive) | > 100 µM (inactive) | > 100 µM (inactive) | > 100 µM (inactive) | – | 0.692 µM (active) | > 100 µM (inactive) | > 100 µM (inactive) | 39.1 µM (inactive)
4 | C#CCSc1nc(N)c2ncn(C3OC(COP(=O)(O)O)C(O)C3O)c2n1 (stereo not drawn) | > 239 µM (inactive) | > 239 µM (inactive) | > 239 µM (inactive) | > 239 µM (inactive) | > 239 µM (inactive) | > 239 µM (inactive) | > 239 µM (inactive) | > 239 µM (inactive) | > 239 µM (inactive) | > 239 µM (inactive) | > 239 µM (inactive) | > 239 µM (inactive) | > 239 µM (inactive) | > 239 µM (inactive) | > 239 µM (inactive) | –
5 | O=C(O)/C=C/n1c2ccccc2c(=O)c2ccccc21 | > 100 µM (inactive) | > 100 µM (inactive) | > 100 µM (inactive) | > 100 µM (inactive) | > 100 µM (inactive) | > 100 µM (inactive) | > 100 µM (inactive) | > 100 µM (inactive) | > 100 µM (inactive) | > 100 µM (inactive) | > 100 µM (inactive) | – | > 100 µM (inactive) | > 100 µM (inactive) | > 100 µM (inactive) | > 100 µM (inactive)
6 | Nc1ncnc2c1ncn2C1OC(CSC(F)F)C(O)C1O (stereo not drawn) | > 100 µM (inactive) | > 100 µM (inactive) | > 100 µM (inactive) | > 100 µM (inactive) | > 100 µM (inactive) | 86.3 µM (inactive) | > 100 µM (inactive) | > 100 µM (inactive) | > 100 µM (inactive) | > 100 µM (inactive) | > 100 µM (inactive) | > 100 µM (inactive) | > 100 µM (inactive) | > 100 µM (inactive) | – | –
7 | CC(=O)Nc1ccc(C(=O)NN2C(=O)C(Cl)C2c2ccc([N+](=O)[O-])cc2)cc1 (stereo not drawn) | > 100 µM (inactive) | > 100 µM (inactive) | > 100 µM (inactive) | > 100 µM (inactive) | > 100 µM (inactive) | > 100 µM (inactive) | – | > 100 µM (inactive) | – | > 100 µM (inactive) | > 100 µM (inactive) | > 100 µM (inactive) | > 100 µM (inactive) | > 100 µM (inactive) | > 100 µM (inactive) | > 100 µM (inactive)
8 | NC(CCC(=O)NC(CSC(=O)N(O)c1ccccc1)C(=O)NCC(=O)O)C(=O)O (stereo not drawn) | 918 µM (inactive) | > 1000 µM (inactive) | > 1000 µM (inactive) | > 1000 µM (inactive) | > 1000 µM (inactive) | > 1000 µM (inactive) | > 1000 µM (inactive) | > 1000 µM (inactive) | – | > 1000 µM (inactive) | > 1000 µM (inactive) | > 1000 µM (inactive) | > 1000 µM (inactive) | > 1000 µM (inactive) | > 1000 µM (inactive) | > 1000 µM (inactive)
9 | CCOC(=O)C1C(=O)C(=O)N2CCc3c([nH]c4ccccc34)C12 (stereo not drawn) | > 100 µM (inactive) | > 100 µM (inactive) | > 100 µM (inactive) | > 100 µM (inactive) | > 100 µM (inactive) | > 100 µM (inactive) | > 100 µM (inactive) | > 100 µM (inactive) | > 100 µM (inactive) | > 100 µM (inactive) | > 100 µM (inactive) | > 100 µM (inactive) | – | > 100 µM (inactive) | > 100 µM (inactive) | > 100 µM (inactive)
10 | CCOC(=O)NC(=O)c1cn(CCN2CCNCC2)c(=O)[nH]c1=O | – | > 100 µM (inactive) | > 100 µM (inactive) | > 100 µM (inactive) | > 100 µM (inactive) | > 100 µM (inactive) | > 100 µM (inactive) | > 100 µM (inactive) | > 100 µM (inactive) | > 100 µM (inactive) | > 100 µM (inactive) | > 100 µM (inactive) | – | > 100 µM (inactive) | > 100 µM (inactive) | > 100 µM (inactive)
11 | O=S1(=O)CS(=O)(=O)OCCCCCO1 | > 100 µM (inactive) | > 100 µM (inactive) | > 100 µM (inactive) | > 100 µM (inactive) | > 100 µM (inactive) | > 100 µM (inactive) | > 100 µM (inactive) | – | > 100 µM (inactive) | > 100 µM (inactive) | > 100 µM (inactive) | > 100 µM (inactive) | > 100 µM (inactive) | > 100 µM (inactive) | > 100 µM (inactive) | > 100 µM (inactive)
12 | COc1ccc(CNc2cnc3cc(N)ccc3n2)cc1OC | > 100 µM (inactive) | > 100 µM (inactive) | > 100 µM (inactive) | – | > 100 µM (inactive) | > 100 µM (inactive) | > 100 µM (inactive) | > 100 µM (inactive) | > 100 µM (inactive) | – | – | – | > 100 µM (inactive) | > 100 µM (inactive) | > 100 µM (inactive) | –
13 | Cc1c(C(=O)c2ccccc2C(=O)O)c2ccccc2n1C | > 100 µM (inactive) | > 100 µM (inactive) | > 100 µM (inactive) | > 100 µM (inactive) | > 100 µM (inactive) | – | > 100 µM (inactive) | > 100 µM (inactive) | > 100 µM (inactive) | > 100 µM (inactive) | > 100 µM (inactive) | > 100 µM (inactive) | > 100 µM (inactive) | – | – | > 100 µM (inactive)
14 | CC(C)(C)C#COC(=O)c1ccccc1 | > 100 µM (inactive) | > 100 µM (inactive) | > 100 µM (inactive) | > 100 µM (inactive) | > 100 µM (inactive) | > 100 µM (inactive) | > 100 µM (inactive) | > 100 µM (inactive) | > 100 µM (inactive) | > 100 µM (inactive) | > 100 µM (inactive) | > 100 µM (inactive) | > 100 µM (inactive) | > 100 µM (inactive) | > 100 µM (inactive) | –
15 | FC(F)(F)c1ccc2nc(NCc3ccccc3)c(-c3ccccc3)nc2c1 | 25 µM (inactive) | 37.2 µM (inactive) | 49.4 µM (inactive) | – | – | – | – | 30.2 µM (inactive) | 36.4 µM (inactive) | 53.7 µM (inactive) | 39 µM (inactive) | 38.4 µM (inactive) | 28.1 µM (inactive) | 36.6 µM (inactive) | 46.2 µM (inactive) | 20.4 µM (inactive)
16 | Cc1ccc(/C=C(\C#N)c2ccccc2)cc1 | > 100 µM (inactive) | > 100 µM (inactive) | > 100 µM (inactive) | > 100 µM (inactive) | > 100 µM (inactive) | > 100 µM (inactive) | > 100 µM (inactive) | > 100 µM (inactive) | > 100 µM (inactive) | > 100 µM (inactive) | > 100 µM (inactive) | > 100 µM (inactive) | > 100 µM (inactive) | > 100 µM (inactive) | – | > 100 µM (inactive)
17 | CC(C)C(CCOS(=O)(=O)O)CCC(C)[C@H]1[C@@H](O)C(O)C2[C@]3(O)C[C@@H](O)C4(O)C[C@@H](O)CC[C@]4(C)C3CC[C@@]21C (stereo partly drawn) | > 100 µM (inactive) | > 100 µM (inactive) | > 100 µM (inactive) | > 100 µM (inactive) | > 100 µM (inactive) | > 100 µM (inactive) | > 100 µM (inactive) | > 100 µM (inactive) | > 100 µM (inactive) | > 100 µM (inactive) | > 100 µM (inactive) | > 100 µM (inactive) | – | > 100 µM (inactive) | > 100 µM (inactive) | > 100 µM (inactive)
18 | Cc1c2cc[n+](C)cc2c(C)c2c1[nH]c1ccc(Oc3ccccc3)cc12 | 7.29 µM (inactive) | 1.19 µM (inactive) | 0.843 µM (active) | 2.23 µM (inactive) | 4.48 µM (inactive) | – | 0.59 µM (active) | 1.88 µM (inactive) | 1.62 µM (inactive) | 0.515 µM (active) | 1.51 µM (inactive) | 1.39 µM (inactive) | 1.18 µM (inactive) | 0.381 µM (active) | 0.67 µM (active) | –
19 | c1ccc2nc(-c3ccc4c(c3)OCO4)ccc2c1 | 20 µM (inactive) | – | 77.6 µM (inactive) | – | 54.2 µM (inactive) | 31.8 µM (inactive) | 24.7 µM (inactive) | 56.9 µM (inactive) | – | 47.1 µM (inactive) | – | – | 15.6 µM (inactive) | 43.2 µM (inactive) | 73.5 µM (inactive) | 15.2 µM (inactive)
